Measured values: PubChem BioAssay AID1996
Converted amounts (≈) assume the structure as drawn.

Details: buffer; pH 7.4; 200.0 µM
Molecule Cc1cc(C)c(S(=O)(=O)NCc2cccs2)cc1C has a solubility kinetic of 36.5 µg/mL (≈ 124 µM).
For Cc1cc(=O)oc2c(CN3CCCC3)c(O)c(Cl)cc12, the solubility kinetic was greater than 44.1 µg/mL.
In the case of N#CCOC(=O)C1c2ccccc2Oc2ccccc21, the solubility kinetic is reported as 35.2 µg/mL (≈ 133 µM).
In the case of CCc1sc(C(=O)NCc2ccccc2)cc1C, the solubility kinetic is reported as 28.7 µg/mL (≈ 111 µM).
For COc1ccc(CNC(=O)C2CC(=O)N(C3CCCC3)C2)cc1 (stereo unspecified), the solubility kinetic was greater than 47.5 µg/mL.
Molecule O=[N+]([O-])c1ccccc1S(=O)(=O)c1ccccc1 has a solubility kinetic greater than 39.5 µg/mL.
Molecule COc1ccc(NC(=O)CCCSc2ccccc2)cc1 has a solubility kinetic of 17.2 µg/mL (≈ 57.1 µM).
For O=C(CS(=O)(=O)Cc1ccccc1)NCc1ccccc1Cl, the solubility kinetic was greater than 50.7 µg/mL.
With COc1cccc(NC(=O)c2ccccc2-c2ccccc2C(=O)O)c1 the solubility kinetic was 51.9 µg/mL (≈ 149 µM).
With Cc1csc(NC(=O)c2ccc3nc[nH]c3c2)n1 the solubility kinetic was greater than 38.7 µg/mL.
COc1cccc(S(=O)(=O)NCc2ccc(C(=O)N3CCN(C)CC3)cc2)c1 showed a solubility kinetic greater than 60.5 µg/mL.
Molecule CN(Cc1ccccc1)C(=O)COC(=O)CN1C(=O)c2ccccc2C1=O has a solubility kinetic greater than 55 µg/mL.
In the case of COC(=O)c1ccc(-n2c(C)cc(C(=O)COC(=O)C3=COCCO3)c2C)cc1, the solubility kinetic is reported as 3.7 µg/mL (≈ 9.26 µM).
CCOc1ccc(C(C)=O)cc1Cc1c(O)[nH]c(=S)[nH]c1=O showed a solubility kinetic of 46.3 µg/mL (≈ 145 µM).
Work on O=C1/C(=C/c2ccc(O)cc2)SC(=S)N1CC1CCCO1 (stereo unspecified) yielded a solubility kinetic of 1.3 µg/mL (≈ 4.04 µM).
CNC(=S)Nc1ccc(OC(F)(F)F)cc1 gave a solubility kinetic of 35.4 µg/mL (≈ 141 µM).
With O=C(CC1CCCCC1)NCc1nc(-c2ccccc2)no1 the solubility kinetic was 5.8 µg/mL (≈ 19.4 µM).
CC(NC(=O)COC(=O)COc1ccc(Cl)cc1)c1ccccc1 (stereo unspecified) showed a solubility kinetic of 40.2 µg/mL (≈ 116 µM).
In the case of CC1=C(C(=O)OCC2CCCCC2)C(c2ccccc2F)NC(=O)N1 (stereo unspecified), the solubility kinetic is reported as 0.6 µg/mL (≈ 1.73 µM).
Work on CN1CC(C(=O)c2ccc(Cl)cc2)C(c2ccc(N(C)C)cc2)C1 (stereo unspecified) yielded a solubility kinetic of 47.1 µg/mL (≈ 137 µM).
With CN(c1ccccc1)c1cc(Br)nc(Br)c1 the solubility kinetic was 0.4 µg/mL (≈ 1.17 µM).
In the case of O=C(C[n+]1ccccc1)Nc1ccccc1, the solubility kinetic is reported as 26.3 µg/mL.
For COc1cc(OC)c(NC(=O)c2csc(C)c2)cc1Cl, the solubility kinetic was less than 0.7 µg/mL.
O=C(NCCCn1ccnc1)C1CCN(S(=O)(=O)c2cc([N+](=O)[O-])ccc2Cl)CC1 showed a solubility kinetic greater than 68.4 µg/mL.
With Cc1ccc(C(=O)Nc2cccc(C(=O)NC3CCCCC3)c2)cc1 the solubility kinetic was less than 0.4 µg/mL.
For CC(=O)OCc1c(-c2ccccc2)c2cc([N+](=O)[O-])ccc2n1C, the solubility kinetic was 0.7 µg/mL (≈ 2.16 µM).
Cc1ccc(CC2SC(N)=NC2=O)cc1 (stereo unspecified) gave a solubility kinetic greater than 33 µg/mL.
O=C(NCc1cccnc1)C(=O)NCC(c1ccco1)N1CCOCC1 (stereo unspecified) gave a solubility kinetic greater than 53.8 µg/mL.
With COc1ccc(-n2c(C)cc3cc(OC(C)=O)ccc32)cc1 the solubility kinetic was 0.7 µg/mL (≈ 2.37 µM).
COc1ccc(N2CCN(C(=O)c3cc(C)on3)CC2)cc1 showed a solubility kinetic greater than 45.2 µg/mL.
For O=C(Nc1ccc(N2CCOCC2)cc1)c1nc2ccccc2s1, the solubility kinetic was less than 0.2 µg/mL.
Molecule CCCc1cc(=S)n2c([nH]c3ccccc32)c1C#N has a solubility kinetic of 16.4 µg/mL (≈ 61.3 µM).
With Cc1ccc(NC(=O)CSc2nc(N)cc(=O)[nH]2)cc1S(=O)(=O)N1CCCCCC1 the solubility kinetic was 10.6 µg/mL (≈ 23.5 µM).
O=C(Cc1c(Cl)cccc1Cl)NC1CC1 showed a solubility kinetic greater than 36.6 µg/mL.
COc1ccc(NCC(O)Cn2c(C)c(C)c3ccccc32)cc1 (stereo unspecified) gave a solubility kinetic of 10.2 µg/mL (≈ 31.4 µM).
Cc1cc(C)c(-c2c(O)c3ccccc3n(C)c2=O)c(C)c1 gave a solubility kinetic greater than 44 µg/mL.
For O=C(NCc1ccco1)c1ccc(-c2cccc(Cl)c2)o1, the solubility kinetic was 1.3 µg/mL (≈ 4.31 µM).
Work on COc1ccc(NC(=O)CN(C)CC(=O)N2CCCCCC2)cc1 yielded a solubility kinetic of 49 µg/mL (≈ 147 µM).
In the case of O=C(Nc1ccc(OC(F)(F)F)cc1)c1ccc2nccnc2c1, the solubility kinetic is reported as 11.4 µg/mL (≈ 34.2 µM).
O=C(NC(=S)Nc1ccccc1OC(F)F)c1ccc2c(c1)OCO2 showed a solubility kinetic of 4.4 µg/mL (≈ 12 µM).
In the case of COc1ccccc1-n1c(CCC(=O)O)ccc1-c1ccccc1, the solubility kinetic is reported as greater than 48.2 µg/mL.
Molecule Cc1ccc2c(c1)C1C[N+](C)(CC(=O)c3ccc(Cl)cc3Cl)CCC1N2C(=O)c1ccc(F)cc1.[Cl-] (stereo unspecified) has a solubility kinetic greater than 82.2 µg/mL.
Molecule CSCCC(NC(=O)c1ccco1)C(=O)NNC(=O)c1n[nH]c(=O)c2ccccc12 (stereo unspecified) has a solubility kinetic greater than 64.4 µg/mL.
Molecule Cc1c(C)[n+](=O)c(-c2ccc(Br)cc2)c(C)n1[O-] has a solubility kinetic greater than 46.4 µg/mL.
In the case of COc1ccc(Cl)cc1CN1CCOCC1.Cl, the solubility kinetic is reported as greater than 41.7 µg/mL.
C=Cn1c(C(=O)O)ccc1-c1ccc(OC)cc1 gave a solubility kinetic greater than 36.5 µg/mL.
